Experimental data as given in patent publication US9738932B2, “Biomarkers for cardiovascular side-effects induced by cox-2 inhibitory compounds” (FIRALIS SAS, priority 2005, dated 2017).

Tested on: mRNA expression in cardiovascular tissues
Assay: Affymetrix GeneChip mRNA expression profiling of monkey tissues (iliac vein, pulmonary vein, aorta, carotid artery, heart) after two-week oral-gavage treatment
[1] = iliac vein, Vioxx animal A60055

Experimental: Administration of compounds. A two-week oral-gavage treatment with the Cox-2 specific inhibitor COX189 (Lumiracoxib®, Novartis) in comparison with rofecoxib (Vioxx®, Merck), and celecoxib (Celebrex®, Pharmacia/Pfizer), and with the nonselective NSAID, diclofenac (Voltaren®, Novartis) was performed. […] The test items were administered daily at doses of 100 mg/kg/day, except Vioxx® which was administered at 50 mg/kg/day.
Gene expression profiles. After a period of time (e.g., four weeks) of compound/drug administration, the treated animals are necropsied. 120 tissues are dissected and rapidly snap-frozen for genomics analysis. Organ samples are isolated for histopathological examinations and for gene expression localizations, such as by in situ hybridization.
Gene expression profiles have been generated using the Affymetrix microarray technology. (i) RNA extraction and purification: Briefly, total RNA was obtained by acid guanidinium thiocyanate-phenol-chloroform extraction (Trizol®, Invitrogen Life Technologies, San Diego, Calif.) from each frozen tissue section and the total RNA was then purified on an affinity resin (Rneasy®, Qiagen) according to the manufacturer's instructions. Total RNA was quantified by the absorbance at λ=260 nm (A260 nm) and the purity was estimated by the ratio A260 nm/A280 nm. Integrity of the RNA molecules was confirmed by non-denaturing agarose gel electrophoresis. RNA was stored at −80° C. until analysis. […] (ii) GeneChip® experiment: All GeneChip® experiments were conducted in the Genomics Factory EU following recommendations by the manufacturer of the GeneChip® system (Affymetrix, Expression Analysis Technical Manual (Affymetrix, Santa Clara, Calif., 2005). Human U133A genome arrays were used for transcript expression analysis. Double stranded cDNA was synthesized with a starting amount of approximately 5 μg full-length total RNA using the Superscript Choice System (Invitrogen Life Technologies) in the presence of a T7-(dT) 24 DNA oligonucleotide primer. Following synthesis, the cDNA was purified by phenol/chloroform/isoamyl alcohol extraction and ethanol precipitation. The purified cDNA was then transcribed in vitro using the BioArray® High Yield RNA Transcript Labeling Kit (ENZO) in the presence of biotinylated ribonucleotides form biotin labelled cRNA. The labelled cRNA was then purified on an affinity resin (Rneasy, Qiagen), quantified and fragmented. An amount of approximately 10 μg labelled cRNA was hybridized for approximately 16 hours at 45° C. to an expression probe array. The array was then washed and stained twice with streptavidin-phycoerythrin (Molecular Probes) using the GeneChip Fluidics Workstation 400 (Affymetrix). The array was then scanned twice using a confocal laser scanner (GeneArray Scanner®, Agilent) resulting in one scanned image. This resulting “.dat-file” was processed using the MASS program (Affymetrix) into a “.cel-file”. The “.cel file” was then transferred to tan Affymetrix GeneChip Laboratory Information Management System (LIMS) database, which is connected to a UNIX Sun Solaris server through a network filing system that allows for the average intensities for all probes cells (CEL file) to be downloaded into an Oracle database (NPGN). Raw data was converted to expression levels using a “target intensity” of 100. […] The data were checked for quality and loaded in the GeneSpring® software versions 5.0 (Silicon Genetics, Calif., US) for statistical analysis.
Quality control analysis of transcriptome data: The following quality measures were analysed for each sample: Scaling factor, background, percent present calls, AFFX-GAPDH 3′: AFFX-GAPDH 5′-ratio, AFFX-GAPDH 3′ variance, AFFX-Beta-actin 3′: AFFX-Beta-actin 5′-ratio.

Compound: CS(=O)(=O)c1ccc(C2=C(c3ccccc3)C(=O)OC2)cc1 [Vioxx®, rofecoxib]
- expression of MHC class I classical and non-classical molecules, MHC class II molecules and their receptors (16 tissues, ANOVA p<0.05, 50 mg/kg/day, two weeks): significant increases
- ACE (209749_s_at) mRNA expression, fold change vs control [1]: 1.3 fold
- B2M (216231_s_at) mRNA expression, fold change vs control [1]: 1.4 fold
- BCL6 (215990_s_at) mRNA expression, fold change vs control [1]: 1.3 fold
- BTN2A2 (205298_s_at) mRNA expression, fold change vs control [1]: 1.4 fold
- CCR1 (205098_at) mRNA expression, fold change vs control [1]: 1.4 fold
- CD2 (205831_at) mRNA expression, fold change vs control [1]: 1.4 fold
- CD48 (204118_at) mRNA expression, fold change vs control [1]: 1.5 fold
- CD53 (203416_at) mRNA expression, fold change vs control [1]: 1.5 fold
- CDC2 (210559_s_at) mRNA expression, fold change vs control [1]: 1.5 fold
- CYBB (203922_s_at) mRNA expression, fold change vs control [1]: 1.4 fold
- EMP3 (203729_at) mRNA expression, fold change vs control [1]: 1.4 fold
- FCER1G (204232_at) mRNA expression, fold change vs control [1]: 1.4 fold
- FCGR2A (203561_at) mRNA expression, fold change vs control [1]: 1.5 fold
- FCGRT (218831_s_at) mRNA expression, fold change vs control [1]: 1.4 fold
- FKBP11 (219117_s_at) mRNA expression, fold change vs control [1]: 1.4 fold
- FKBP11 (219118_at) mRNA expression, fold change vs control [1]: 1.5 fold
- GP6 (220336_s_at) mRNA expression, fold change vs control [1]: 1.4 fold
- HCLS1 (202957_at) mRNA expression, fold change vs control [1]: 1.3 fold
- HEM1 (209734_at) mRNA expression, fold change vs control [1]: 1.5 fold
- HLA-A (210514_x_at) mRNA expression, fold change vs control [1]: 1.3 fold
- HLA-A (213932_x_at) mRNA expression, fold change vs control [1]: 1.5 fold
- HLA-C (211799_x_at) mRNA expression, fold change vs control [1]: 1.4 fold
- HLA-E (200904_at) mRNA expression, fold change vs control [1]: 1.4 fold
- HLA-F (221978_at) mRNA expression, fold change vs control [1]: 1.3 fold
- ICAM1 (202637_s_at) mRNA expression, fold change vs control [1]: 1.3 fold
- IL13RA1 (210904_s_at) mRNA expression, fold change vs control [1]: 1.2 fold
- PIK3CD (203879_at) mRNA expression, fold change vs control [1]: 1.2 fold
- PRKCBP1 (209048_s_at) mRNA expression, fold change vs control [1]: 1.3 fold
- PRKCBP1 (209049_s_at) mRNA expression, fold change vs control [1]: 1.5 fold
- PTPN7 (204852_s_at) mRNA expression, fold change vs control [1]: 1.4 fold
- SIGIRR (52940_at) mRNA expression, fold change vs control [1]: 1.2 fold
- STAT1 (200887_s_at) mRNA expression, fold change vs control [1]: 1.5 fold
- STAT1 (AFFX-HUMISGF3A/M97935_3_at) mRNA expression, fold change vs control [1]: 1.4 fold
- STAT3 (208992_s_at) mRNA expression, fold change vs control [1]: 1.5 fold
- TCIRG1 (204158_s_at) mRNA expression, fold change vs control [1]: 1.2 fold
- THY1 (213869_x_at) mRNA expression, fold change vs control [1]: 1.3 fold
- TMPO (209753_s_at) mRNA expression, fold change vs control [1]: 1.5 fold
- TMSB10 (217733_s_at) mRNA expression, fold change vs control [1]: 1.4 fold
- TNFRSF21 (218856_at) mRNA expression, fold change vs control [1]: 1.5 fold
- TRB@ (210915_x_at) mRNA expression, fold change vs control [1]: 1.3 fold
- TRB@ (213193_x_at) mRNA expression, fold change vs control [1]: 1.5 fold
- 209813_x_at fold change vs control (iliac vein, animal A60055): 2.4 fold
- AIF1 (209901_x_at) fold change vs control (iliac vein, animal A60055): 3.0 fold
- AIF1 (213095_x_at) fold change vs control (iliac vein, animal A60055): 3.2 fold
- B2M (201891_s_at) fold change vs control (iliac vein, animal A60055): 3.0 fold
- BCL3 (204908_s_at) fold change vs control (iliac vein, animal A60055): 1.7 fold
- BTN3A1 (207485_x_at) fold change vs control (iliac vein, animal A60055): 4.0 fold
- BTN3A3 (38241_at) fold change vs control (iliac vein, animal A60055): 2.3 fold
- BTN3A3 (204820_s_at) fold change vs control (iliac vein, animal A60055): 4.1 fold
- BTN3A3 (204821_at) fold change vs control (iliac vein, animal A60055): 3.3 fold
- C1QA (218232_at) fold change vs control (iliac vein, animal A60055): 1.7 fold
- C1QB (202953_at) fold change vs control (iliac vein, animal A60055): 1.8 fold
- C1R (212067_s_at) fold change vs control (iliac vein, animal A60055): 2.0 fold
- C1S (208747_s_at) fold change vs control (iliac vein, animal A60055): 3.6 fold
- C2 (203052_at) fold change vs control (iliac vein, animal A60055): 3.3 fold
- C4A (208451_s_at) fold change vs control (iliac vein, animal A60055): 3.8 fold
- CASP1 (209970_x_at) fold change vs control (iliac vein, animal A60055): 2.3 fold
- CASP1 (211367_s_at) fold change vs control (iliac vein, animal A60055): 2.7 fold
- CCL2 (216598_s_at) fold change vs control (iliac vein, animal A60055): 150.9 fold
- CCL3 (205114_s_at) fold change vs control (iliac vein, animal A60055): 3.8 fold
- CCL5 (1405_i_at) fold change vs control (iliac vein, animal A60055): 2.8 fold
- CCL8 (214038_at) fold change vs control (iliac vein, animal A60055): 8.8 fold
- CCL18 (209924_at) fold change vs control (iliac vein, animal A60055): 2.0 fold
- CCL19 (210072_at) fold change vs control (iliac vein, animal A60055): 3.0 fold
- CCNB2 (202705_at) fold change vs control (iliac vein, animal A60055): 2.9 fold
- CD3D (213539_at) fold change vs control (iliac vein, animal A60055): 1.9 fold
- CD8A (205758_at) fold change vs control (iliac vein, animal A60055): 2.3 fold
- CD14 (201743_at) fold change vs control (iliac vein, animal A60055): 2.0 fold
- CD74 (209619_at) fold change vs control (iliac vein, animal A60055): 2.8 fold
- CLU (208791_at) fold change vs control (iliac vein, animal A60055): 2.2 fold
- CMAH (210571_s_at) fold change vs control (iliac vein, animal A60055): 2.0 fold
- CTSC (201487_at) fold change vs control (iliac vein, animal A60055): 2.1 fold
- CTSK (202450_s_at) fold change vs control (iliac vein, animal A60055): 1.5 fold
- CTSS (202902_s_at) fold change vs control (iliac vein, animal A60055): 1.6 fold
- CX3CR1 (205898_at) fold change vs control (iliac vein, animal A60055): 3.6 fold
- CXCL9 (203915_at) fold change vs control (iliac vein, animal A60055): 9.3 fold
- CXCL10 (204533_at) fold change vs control (iliac vein, animal A60055): 19.8 fold
- CXCL11 (210163_at) fold change vs control (iliac vein, animal A60055): 9.7 fold
- CXCL11 (211122_s_at) fold change vs control (iliac vein, animal A60055): 6.6 fold
- CXCL12 (209687_at) fold change vs control (iliac vein, animal A60055): 1.6 fold
- CYBA (203028_s_at) fold change vs control (iliac vein, animal A60055): 1.8 fold
- CYBB (203923_s_at) fold change vs control (iliac vein, animal A60055): 1.6 fold
- CYP1B1 (202436_s_at) fold change vs control (iliac vein, animal A60055): 2.6 fold
- CYP3A5 (214234_s_at) fold change vs control (iliac vein, animal A60055): 3.9 fold
- CYP11B1 (214630_at) fold change vs control (iliac vein, animal A60055): 2.5 fold
- DUSP6 (208893_s_at) fold change vs control (iliac vein, animal A60055): 3.0 fold
- ECGF1 (204858_s_at) fold change vs control (iliac vein, animal A60055): 3.3 fold
- ECM1 (209365_s_at) fold change vs control (iliac vein, animal A60055): 2.0 fold
- F2RL1 (206429_at) fold change vs control (iliac vein, animal A60055): 2.0 fold
- F13A1 (203305_at) fold change vs control (iliac vein, animal A60055): 1.8 fold
- FCGR1A (214511_x_at) fold change vs control (iliac vein, animal A60055): 2.0 fold
- FCGR3A (204006_s_at) fold change vs control (iliac vein, animal A60055): 2.5 fold
- G1P2 (205483_s_at) fold change vs control (iliac vein, animal A60055): 4.5 fold
- GZMB (210164_at) fold change vs control (iliac vein, animal A60055): 3.2 fold
- HCA127 (220040_x_at) fold change vs control (iliac vein, animal A60055): 2.0 fold
- HCK (208018_s_at) fold change vs control (iliac vein, animal A60055): 1.8 fold
- HFE (210864_x_at) fold change vs control (iliac vein, animal A60055): 1.8 fold
